# Measurements taken from US11999695B2, “YAP1 inhibitors that target the interaction of YAP1 with OCT4” (H. LEE MOFFITT CANCER CENTER AND RESEARCH INSTITUTE, INC., priority 2016, dated 2024).
# Experiments:
# YAP1:OCT4 = YAP1:OCT4 (Homo sapiens, UniProt P46937); experiment: In vitro YAP1:OCT4 ELISA binding assay; details: YAP1:OCT4 disruption
# Procedure: Activities of Compounds in the In Vitro YAP1:OCT4 ELISA Binding Assay
# Selected compounds were assayed in a YAP1:OCT4 binding assay.
# binding of Oct4 to YAP1 = biological target: T1, binding of Oct4 to YAP1 (Homo sapiens, UniProt P46937); experiment: Immunoprecipitation-Western blot of Oct4-YAP1 binding (FIG. 15); assay type: cell-based; details: 5 μM, 72 hours
# T1 construct: Lysates were prepared from the cells, and immunoprecipitated with an antibody to OCt4; endogenous in cells; host or cells: A549 and H1650 cells
# Procedure: FIG. 15 is a group of gel images showing peptidomimetic compounds SR2-022, SR2-030, and SR2-033 reduced YAP1-Oct4 interaction as detected by IP-WB. An immunoprecipitation-Western blot experiment was conducted to assess if the indicated compounds could disrupt the binding of Oct4 to YAP1. IP-western blots were conducted using the protocols described in Bora-Singhal et al, 2015. Essentially, cells were treated with 5 μM of the indicated compounds for 72 hours. Lysates were prepared from the cells, and immunoprecipitated with an antibody to OCt4, or a control IgG. Lysates as well as the immunoprecipitates were resoled by a polyacrylamide gel and a western blot was conducted using an antibody to YAP1.
# Sequence of YAP1:OCT4 (P46937 whole entry): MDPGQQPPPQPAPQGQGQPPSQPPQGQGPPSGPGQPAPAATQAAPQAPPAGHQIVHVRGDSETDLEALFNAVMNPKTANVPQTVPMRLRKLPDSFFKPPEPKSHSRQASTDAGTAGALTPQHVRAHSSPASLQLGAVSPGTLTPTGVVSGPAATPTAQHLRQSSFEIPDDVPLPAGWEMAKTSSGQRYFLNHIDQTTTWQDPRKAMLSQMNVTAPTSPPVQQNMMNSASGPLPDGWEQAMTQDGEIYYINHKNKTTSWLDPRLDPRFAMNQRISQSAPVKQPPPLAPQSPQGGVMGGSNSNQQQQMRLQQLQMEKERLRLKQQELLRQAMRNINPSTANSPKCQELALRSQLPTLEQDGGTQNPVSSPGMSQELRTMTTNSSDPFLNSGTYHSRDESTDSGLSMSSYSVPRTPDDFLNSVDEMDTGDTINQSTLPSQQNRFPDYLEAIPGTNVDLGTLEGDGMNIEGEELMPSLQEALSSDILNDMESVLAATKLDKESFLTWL
# T1 sequence (P46937 whole entry): as above
Structure (SMILES),IC50 (YAP1:OCT4) [µM],YAP1-Oct4 interaction detected by IP-WB (binding of Oct4 to YAP1; A549 cells),YAP1-Oct4 interaction detected by IP-WB (binding of Oct4 to YAP1; H1650 cells)
"COC(=O)[C@H](Cc1ccc(OCc2ccccc2)cc1)NC(=O)CC1CCN(C(=O)OC(C)(C)C)CC1 [SR1-083, tert-Butyl (S)-4-(2-((3-(4-(benzyloxy)phenyl)-1-methoxy-1-oxopropan-2-yl)amino)-2-oxoethyl)piperidine-1-carboxylate]",1 to 10,,
"COC(=O)[C@H](Cc1ccc(OCc2ccccc2)cc1)NC(=O)CN1CCN(C(=O)OC(C)(C)C)CC1 [SR1-090, tert-Butyl (S)-4-(2-((3-(4-(benzyloxy)phenyl)-1-methoxy-1-oxopropan-2-yl)amino)-2-oxoethyl)piperazine-1-carboxylate]",> 10,,
"COC(=O)[C@H](Cc1ccc(OCc2ccccc2)cc1)NC(=O)CC1CCN(Cc2ccccc2)CC1 [SR1-117, Methyl (S)-3-(4-(benzyloxy)phenyl)-2-(2-(1-benzylpiperidin-4-yl)acetamido)propanoate]",> 10,,
"COC(=O)[C@H](Cc1ccc(OCc2ccccc2)cc1)NC(=O)CC1CCN(C(=O)CCc2ccccc2)CC1 [SR1-119, Methyl (S)-3-(4-(benzyloxy)phenyl)-2-(2-(1-(3-phenylpropanoyl)piperidin-4-yl)acetamido)propanoate]",1 to 10,,
"COC(=O)[C@H](Cc1ccc(OCc2ccccc2)cc1)NC(=O)CC1CCN(C(=O)Cc2ccccc2)CC1 [SR1-122, Methyl (S)-3-(4-(benzyloxy)phenyl)-2-(2-(1-(2-phenylacetyl)piperidin-4-yl)acetamido)-propanoate]",1 to 10,,
"CC(C)(C)OC(=O)N1CCC(CC(=O)N[C@@H](Cc2ccc(OCc3ccccc3)cc2)C(=O)O)CC1 [SR1-152, (S)-3-(4-(benzyloxy)phenyl)-2-(2-(1-(tert-butoxycarbonyl)piperidin-4-yl)acetamido)-propanoic acid]",1 to 10,,
"CC(C)NC(=O)[C@H](Cc1ccc(OCc2ccccc2)cc1)NC(=O)CC1CCN(C(=O)OC(C)(C)C)CC1 [SR1-167, tert-butyl (S)-4-(2-((3-(4-(benzyloxy)phenyl)-1-(isopropylamino)-1-oxopropan-2-yl)amino)-2-oxoethyl)piperidine-1-carboxylate]",1 to 10,,
"COC(=O)[C@H](Cc1ccc(OCc2ccccc2)cc1)NC(=O)CC1CCN(C(=O)CCc2ccccc2OC)CC1 [SR2-006, Methyl (S)-3-(4-(benzyloxy)phenyl)-2-(2-(1-(3-(2-methoxyphenyl)propanoyl)piperidin-4-yl)acetamido)propanoate]",1 to 10,,
"CCOc1ccc(CCC(=O)N2CCC(CC(=O)N[C@@H](Cc3ccc(OCc4ccccc4)cc3)C(=O)OC)CC2)cc1 [SR2-007, Methyl (S)-3-(4-(benzyloxy)phenyl)-2-(2-(1-(3-(4-ethoxyphenyl)propanoyl)piperidin-4-yl)acetamido)propanoate]",1 to 10,,
"COC(=O)[C@H](Cc1ccc(OCc2ccccc2)cc1)NC(=O)CC1CCN(C(=O)CCc2cccc(F)c2)CC1 [SR2-010, Methyl (S)-3-(4-(benzyloxy)phenyl)-2-(2-(1-(3-(3-fluorophenyl)propanoyl)piperidin-4-yl)acetamido)propanoate]",< 10,,
"O=C(CC1CCN(C(=O)CCc2ccccc2)CC1)N[C@@H](Cc1ccc(OCc2ccccc2)cc1)C(=O)O [SR2-022, (S)-3-(4-(Benzyloxy)phenyl)-2-(2-(1-(3-phenylpropanoyl)piperidin-4-yl)acetamido)propan-oic acid]",< 10,completely abolished,significantly reduced
"COC(=O)[C@H](Cc1ccc(OCc2ccccc2)cc1)NC(=O)CC1CCN(C(=O)CCc2ccc(Cl)c(Cl)c2)CC1 [SR2-030, Methyl (S)-3-(4-(benzyloxy)phenyl)-2-(2-(1-(3-(3,4-dichlorophenyl)propanoyl)piperidin-4-yl)acetamido)propanoate]",< 10,completely abolished,significantly reduced
"COC(=O)[C@H](Cc1ccc(OCc2ccccc2)cc1)NC(=O)CC1CCN(C(=O)CCc2cccc(Cl)c2)CC1 [SR2-032, Methyl (S)-3-(4-(benzyloxy)phenyl)-2-(2-(1-(3-(3-chlorophenyl)propanoyl)piperidin-4-yl)acetamido)propanoate]",< 10,,
"COC(=O)[C@H](Cc1ccc(OCc2ccccc2)cc1)NC(=O)CC1CCN(C(=O)CCc2cccc(C)c2)CC1 [SR2-036, Methyl (S)-3-(4-(benzyloxy)phenyl)-2-(2-(1-(3-(m-tolyl)propanoyl)piperidin-4-yl)acetamido)propanoate]",1 to 10,,
"COC(=O)[C@H](Cc1ccc(OCc2ccccc2)cc1)NC(=O)CC1CCN(C(=O)CCc2cc(Cl)cc(Cl)c2)CC1 [SR2-106, Methyl (S)-3-(4-(benzyloxy)phenyl)-2-(2-(1-(3-(3,5-dichlorophenyl)propanoyl)piperidin-4-yl)acetamido)propanoate]",< 10,,
"COC(=O)[C@H](Cc1ccc(OCc2ccccc2)cc1)NC(=O)CC1CCN(C(=O)CCc2cccc(Br)c2)CC1 [SR2-107, Methyl (S)-3-(4-(benzyloxy)phenyl)-2-(2-(1-(3-(3-bromophenyl)propanoyl)piperidin-4-yl)acetamido)propanoate]",< 10,,
"N#Cc1ccc(CCC(=O)N2CCC(CC(=O)N[C@@H](Cc3ccc(OCc4ccccc4)cc3)C(=O)O)CC2)cc1 [SR2-114, (S)-3-(4-(Benzyloxy)phenyl)-2-(2-(1-(3-(4-cyanophenyl)propanoyl)piperidin-4-yl)acetamido)propanoic acid]",< 10,,
"CCOc1ccc(CCC(=O)N2CCC(CC(=O)N[C@@H](Cc3ccc(OCc4ccccc4)cc3)C(=O)O)CC2)cc1 [SR2-122, (S)-3-(4-(Benzyloxy)phenyl)-2-(2-(1-(3-(4-ethoxyphenyl)propanoyl)piperidin-4-yl)acetamido)propanoic acid]",< 10,,

# Now from value to compound:
IC50 (YAP1:OCT4) [µM],YAP1-Oct4 interaction detected by IP-WB (binding of Oct4 to YAP1; A549 cells),YAP1-Oct4 interaction detected by IP-WB (binding of Oct4 to YAP1; H1650 cells),Structure (SMILES)
> 10,,,"COC(=O)[C@H](Cc1ccc(OCc2ccccc2)cc1)NC(=O)CN1CCN(C(=O)[C@@H]2CCCN2C(=O)OCC2c3ccccc3-c3ccccc32)CC1 [SR1-094, Fmoc-Pro-piperazineacetic acid Tyr(bzl)-OMe]"
1 to 10,,,"COC(=O)[C@H](Cc1ccc(OCc2ccccc2)cc1)NC(=O)CC1CCN(C(=O)c2ccccc2)CC1 [SR1-118, Methyl (S)-2-(2-(1-benzoylpiperidin-4-yl)acetamido)-3-(4-(benzyloxy)phenyl)propanoate]"
< 10,,,"COC(=O)[C@H](Cc1ccc(OCc2ccccc2)cc1)NC(=O)CC1CCN(C(=O)CCc2ccc(Cl)cc2)CC1 [SR2-004, Methyl (S)-3-(4-(benzyloxy)phenyl)-2-(2-(1-(3-(4-chlorophenyl)propanoyl)piperidin-4-yl)acetamido)propanoate]"
1 to 10,,,"COC(=O)[C@H](Cc1ccc(OCc2ccccc2)cc1)NC(=O)CC1CCN(C(=O)CCc2ccc(F)cc2)CC1 [SR2-008, Methyl (S)-3-(4-(benzyloxy)phenyl)-2-(2-(1-(3-(4-fluorophenyl)propanoyl)piperidin-4-yl)acetamido)propanoate]"
1 to 10,,,"COC(=O)[C@H](Cc1ccc(OCc2ccccc2)cc1)NC(=O)CC1CCN(C(=O)CCc2ccc(C(F)(F)F)cc2)CC1 [SR2-009, Methyl (S)-3-(4-(benzyloxy)phenyl)-2-(2-(1-(3-(4-(trifluoromethyl)phenyl)propanoyl)-piperidin-4-yl)acetamido)propanoate]"
1 to 10,,,"O=C(CC1CCN(C(=O)CCc2ccccc2)CC1)N[C@@H](Cc1ccc(OCc2ccccc2)cc1)C(=O)NC1CC1 [SR2-015, (S)-3-(4-(Benzyloxy)phenyl)-N-cyclopropyl-2-(2-(1-(3-phenylpropanoyl)piperidin-4-yl)acetamido)propanamide]"
1 to 10,,,"O=C(CC1CCN(C(=O)CCc2ccccc2)CC1)N[C@@H](Cc1ccc(OCc2ccccc2)cc1)C(=O)NC1CCC1 [SR2-016, (S)-3-(4-(Benzyloxy)phenyl)-N-cyclobutyl-2-(2-(1-(3-phenylpropanoyl)piperidin-4-yl)acetamido)propanamide]"
1 to 10,,,"O=C(CC1CCN(C(=O)CCc2ccccc2)CC1)N[C@@H](Cc1ccc(OCc2ccccc2)cc1)C(=O)NCC1CC1 [SR2-019, (S)-3-(4-(benzyloxy)phenyl)-N-(cyclopropylmethyl)-2-(2-(1-(3-phenylpropanoyl)piperidin-4-yl)acetamido)propanamide]"
< 10,,,"COC(=O)[C@H](Cc1ccc(OCc2ccccc2)cc1)NC(=O)CC1CCN(C(=O)CC(c2ccccc2)c2ccccc2)CC1 [SR2-029, Methyl (S)-3-(4-(benzyloxy)phenyl)-2-(2-(1-(3,3-diphenylpropanoyl)piperidin-4-yl)acetamido)propanoate]"
< 10,,,"O=C(CC1CCN(C(=O)CCc2ccc(Cl)c(Cl)c2)CC1)N[C@@H](Cc1ccc(OCc2ccccc2)cc1)C(=O)O [SR2-113, (S)-3-(4-(Benzyloxy)phenyl)-2-(2-(1-(3-(3,4-dichlorophenyl)propanoyl)piperidin-4-yl)acetamido)propanoic acid]"
< 10,,,"O=C(CC1CCN(C(=O)CCc2cccc(F)c2)CC1)N[C@@H](Cc1ccc(OCc2ccccc2)cc1)C(=O)O [SR2-117, (S)-3-(4-(Benzyloxy)phenyl)-2-(2-(1-(3-(3-fluorophenyl)propanoyl)piperidin-4-yl)acetamido)propanoic acid]"
< 10,,,"O=C(CC1CCN(C(=O)CCc2ccc(F)cc2)CC1)N[C@@H](Cc1ccc(OCc2ccccc2)cc1)C(=O)O [SR2-120, (S)-3-(4-(Benzyloxy)phenyl)-2-(2-(1-(3-(4-fluorophenyl)propanoyl)piperidin-4-yl)acetamido)propanoic acid]"
